The NIST ThermoML archive (doi:10.1021/je200309v)

Test: mn = molality of the nth substance listed, in mol/kg
Conditions: 101 kPa, Liquid, Alternating current cell with electrodes

CC[N+](CC)(CC)CC.F[B-](F)(F)F [tetraethylammonium tetrafluoroborate] + CC1COC(=O)O1
electrical conductivity [S/m]
Conditions	m1 = 0.1593	m1 = 0.461	m1 = 0.5658	m1 = 0.7282	m1 = 0.8234	m1 = 0.9666	m1 = 1.186	m1 = 1.425
253.15 K	0.1317	0.278	0.3133	0.3523	0.366	0.3749	0.359	–
273.15 K	0.239	0.519	0.591	0.676	0.712	0.745	0.75	0.689
293.15 K	0.364	0.812	0.929	1.07	1.128	1.19	1.201	1.116
313.15 K	0.516	1.16	1.333	1.543	1.635	1.73	1.77	1.69
333.15 K	0.678	1.535	1.76	2.049	2.18	2.314	2.4	2.307
